Laboratory results: EP0908457B1, “3-(1,2-benzisothiazol- and isoxazol-5-Y1)-2,4(1H,3H)-pyrimidinedione or thione and 3-(1,2-benzisothiazol- and isoxazol-5-y1)-4(3H)-pyrimidinone or thione herbicidal agents” (BASF AKTIENGESELLSCHAFT, priority 1997, dated 1999)

Tests used:
Type in all cases: in vivo
[1] = test system: Cyperus serotinus, Rottb.; assay: Preemergence weed control under flooded paddy conditions, CYPSE (Flatsedge); details: preemergence, rated three to four weeks after treatment
Sagittaria pygmaea, L. = assay: Preemergence weed control under flooded paddy conditions, SAGPY (Arrowhead (Pygmaea)); details: preemergence, flooded paddy, rated three to four weeks after treatment
[2] = test system: Echinochloa oryzoides (Ard.) Fritsch.; assay: Preemergence weed control under flooded paddy conditions, ECHORC (Watergrass (Calif.)); details: preemergence, flooded paddy, rated three to four weeks after treatment
Cyperus iria = assay: Preemergence weed control under flooded paddy conditions, CYPIR (Rice Flatsedge); details: preemergence, flooded paddy, rated three to four weeks after treatment
[3] = test system: Monochoria vaginalis, Presl.; assay: Preemergence weed control under flooded paddy conditions, MOOVA (Monochoria); details: preemergence, flooded paddy, rated three to four weeks after treatment
Also: meaning of each grade not given here.

Row | SMILES | herbicidal effect rating, CYPSE ([1]; Rate 0.0320 kg/ha) | herbicidal effect rating, CYPSE ([1]; Rate 0.0620 kg/ha) | herbicidal effect rating, CYPSE ([1]; Rate 0.1250 kg/ha) | herbicidal effect rating, CYPSE ([1]; Rate 0.2500 kg/ha) | herbicidal effect rating, SAGPY (Sagittaria pygmaea, L.; Rate 0.0320 kg/ha) | herbicidal effect rating, SAGPY (Sagittaria pygmaea, L.; Rate 0.0620 kg/ha) | herbicidal effect rating, SAGPY (Sagittaria pygmaea, L.; Rate 0.1250 kg/ha) | herbicidal effect rating, SAGPY (Sagittaria pygmaea, L.; Rate 0.2500 kg/ha) | herbicidal effect rating, ECHORC ([2]; Rate 0.0320 kg/ha) | herbicidal effect rating, ECHORC ([2]; Rate 0.0620 kg/ha) | herbicidal effect rating, ECHORC ([2]; Rate 0.1250 kg/ha) | herbicidal effect rating, ECHORC ([2]; Rate 0.2500 kg/ha) | herbicidal effect rating, CYPIR (Cyperus iria; Rate 0.0320 kg/ha) | herbicidal effect rating, CYPIR (Cyperus iria; Rate 0.0620 kg/ha) | herbicidal effect rating, CYPIR (Cyperus iria; Rate 0.1250 kg/ha) | herbicidal effect rating, CYPIR (Cyperus iria; Rate 0.2500 kg/ha) | herbicidal effect rating, MOOVA ([3]; Rate 0.0320 kg/ha) | herbicidal effect rating, MOOVA ([3]; Rate 0.0620 kg/ha) | herbicidal effect rating, MOOVA ([3]; Rate 0.1250 kg/ha) | herbicidal effect rating, MOOVA ([3]; Rate 0.2500 kg/ha)
1 | CCS(=O)(=O)NC(=O)C(C)Oc1ccc(C)cc1-c1nsc2ccc(-n3c(=O)cc(C(F)(F)F)n(C)c3=O)cc12 (stereo not drawn) [Example 571, Propionamide, 2-{{2-{5-[3,6-dihydro-3-methyl-2,6-dioxo-4-(trifluoromethyl)-1(2H)-pyrimidinyl]-1,2-benzisothiazol-3-yl}-p-tolyl}oxy}-N-(ethylsulfonyl)] | 0.0 | 0.0 | 0.0 | 0.0 | 0.0 | 0.0 | 0.0 | 0.0 | 0.0 | 2.0 | 3.0 | 6.0 | 0.0 | 3.0 | 3.0 | 9.0 | 0.0 | 6.0 | 7.0 | 9.0
2 | C=CCC(c1nsc2ccc(-n3c(=O)cc(C(F)(F)F)n(C)c3=O)cc12)S(C)(=O)=O (stereo not drawn) [Example 602, 2,4(1H,3H)-Pyrimidinedione, 1-methyl-3-{3-[1-(methylsulfonyl)-3-butenyl]-1,2-benzisothiazol-5-yl}-6-(trifluoromethyl)-] | – | 0.0 | 7.0 | 9.0 | 0.0 | 0.0 | 0.0 | 3.0 | 0.0 | 5.0 | 9.0 | 9.0 | 3.0 | 3.0 | 5.0 | 5.0 | 7.0 | 7.0 | 8.0 | 9.0
3 | C#CCC(c1nsc2ccc(-n3c(=O)cc(C(F)(F)F)n(C)c3=O)cc12)S(C)(=O)=O (stereo not drawn) [Example 603, 2,4(1H,3H)-Pyrimidinedione, 1-methyl-3-{3-[1-(methylsulfonyl)-3-butynyl]-1,2-benzisothiazol-5-yl}-6-(trifluoromethyl)-] | 0.0 | – | 8.0 | 9.0 | 0.0 | 0.0 | 2.0 | 4.0 | 0.0 | 4.0 | 6.0 | 8.0 | 5.0 | – | 6.0 | 7.0 | 7.0 | 7.0 | 9.0 | 9.0
4 | Cn1c(C(F)(F)F)cc(=O)n(-c2ccc3snc(C(Cc4ccccc4)S(C)(=O)=O)c3c2)c1=O (stereo not drawn) [Example 604, 2,4(1H,3H)-Pyrimidinedione, 1-methyl-3-{3-[alpha(methylsulfonyl)phenethyl]-1,2-benzisothiazol-5-yl}-6-(trifluoromethyl)-] | 0.0 | 0.0 | 0.0 | 0.0 | 0.0 | 0.0 | 0.0 | 0.0 | 7.0 | 7.0 | 7.0 | 9.0 | 0.0 | 3.0 | 4.0 | 6.0 | 5.0 | 6.0 | 7.0 | 8.0
5 | Cn1c(C(F)(F)F)cc(=O)n(-c2ccc3snc(C(C#N)=Cc4ccccc4F)c3c2)c1=O [Example 605, 1,2-Benzisothiazole-3-acetonitrile, 5-[3,6-dihydro-3-methyl-2,6-dioxo-4-(trifluoromethyl)-1(2H)-pyrimidinyl]-alpha-(o-fluorobenzylidene)-] | 0.0 | 0.0 | 0.0 | 0.0 | 4.0 | 4.0 | 5.0 | 7.0 | 4.0 | 4.0 | 7.0 | 7.0 | 1.0 | 3.0 | 7.0 | 7.0 | 9.0 | 9.0 | 9.0 | 9.0
6 | Cn1c(C(F)(F)F)cc(=O)n(-c2ccc3snc(C(C#N)=Cc4ccccc4C#N)c3c2)c1=O [Example 606, 1,2-Benzisothiazole-3-acetonitrile, alpha-(o-cyanobenzylidene)-5-[3,6-dihydro-3-methyl-2,6-dioxo-4-(trifluoromethyl)-1(2H)-pyrimidinyl]-, (E)- and (Z)-] | 0.0 | 2.0 | 2.0 | 2.0 | 0.0 | – | 3.0 | 4.0 | 5.0 | 5.0 | 5.0 | 6.0 | 4.0 | 6.0 | 6.0 | 9.0 | 6.0 | 7.0 | 7.0 | 9.0
7 | Cn1c(C(F)(F)F)cc(=O)n(-c2ccc3snc(C(C#N)=CC4CCCC4)c3c2)c1=O [Example 607, 1,2-Benzisothiazole-3-acetonitrile, alpha(cyclopentylmethylene)-5-[3,6-dihydro-3-methyl-2,6-dioxo-4-(trifluoromethyl)-1(2H)-pyrimidinyl]-, (E)- and (Z)-] | – | 0.0 | 0.0 | 0.0 | 0.0 | 0.0 | 0.0 | 3.0 | 4.0 | 7.0 | 9.0 | 9.0 | 0.0 | 2.0 | 5.0 | 5.0 | 6.0 | 7.0 | 9.0 | 9.0
